Measurements published in patent US8691761B2, “Somatostatin receptor 2 antagonists” (priority 2006, dated 2014).
Bridge positions count the residues as written; N and C are the ends. Square brackets hold non-standard residues; d marks the D form. Peptide text beside a SMILES is read from it. * marks the point of attachment. ξ: configuration not given here. Phe(4-NO2) = N[C@@H](Cc1ccc([N+](=O)[O-])cc1)C(=O)O; dPhe(4-NHCONH2) = NC(=O)Nc1ccc(C[C@@H](N)C(=O)O)cc1; Phe(4-NHCONH2) = NC(=O)Nc1ccc(C[C@H](N)C(=O)O)cc1; Phe(4-Cl) = N[C@@H](Cc1ccc(Cl)cc1)C(=O)O; ξDihydroorotoyl = O=C1CC(C(=O)*)NC(=O)N1; 2Nal = N[C@@H](Cc1ccc2ccccc2c1)C(=O)O; ξPhe(4-NH2) = Nc1ccc(CC(N)C(=O)O)cc1

Tests used:
[1] = target: sst2 (Homo sapiens, UniProt P30874); assay: Calcium release assay in HEK-sst2 cells (Fluo-4NW); assay type: cell-based; design: expressed in transfected cells; host or cells: HEK293 (HEK-sst2); conditions: n ≧ 2
Method: Calcium release assay. Intracellular calcium release was measured in HEK-sst2 using the Fluo-4NW Calcium Assay kit as described previously (Magrys, et al. “The role of anti-alpha-enolase autoantibodies in pathogenicity of autoimmune-mediated retinopathy.” J. Clin. Immunol. 2007, 27, 181-192; Michel et al. “The Nef protein of human immunodeficiency virus is a broad-spectrum modulator of chemokine receptor cell surface levels that acts independently of classical motifs for receptor endocytosis and Galphai signaling.” Mol. Biol. Cell. 2006, 17, 3578-3590). In brief, HEK-sst2 cells were seeded (25,000 cells per well) in poly-D-lysine (20 μg/mL) coated 96 well plates and cultured for 1 day at 37° C. and 5% CO2 in culture medium. At the day of the experiment, the cells were washed with assay buffer (1×HBSS, 20 mM HEPES) containing 2.5 mM probenecid, and then loaded with 100 μL/well Fluo-4NW dye in assay buffer containing 2.5 mM probenecid for 30 min at 37° C. and 5% CO2 and then for further 30 min at room temperature. To measure the intracellular calcium mobilization after stimulation with the SRIF analogues to be tested, the dye-loaded cells were transferred to a SpectraMax M2^e (Molecular Devices, Sunnyvale, Calif.). Intracellular calcium mobilization was recorded in a kinetic for 60 sec at room temperature monitoring fluorescence emission at 520 nm (with λex=485 nm) in the presence of the analogues at the concentrations indicated. Maximum fluorescence (Fmax) was measured after the addition of 25 μM ionomycin. Baseline (control) measurements were taken for dye-loaded, untreated cells. Data are shown as percentage of Fmax (% Fmax) as reported previously. (Magrys, et al. J. Clin. Immunol. 2007, 27, 181-192; Michel et al. Mol. Biol. Cell. 2006, 17, 3578-3590). All experiments were repeated at least three times in triplicate.

[2] = target: T1, hSSTR5 (Homo sapiens, UniProt P35346); assay: Receptor autoradiography, displacement of 125I-[Leu8,D-Trp22,Tyr25]-SRIF-28 from membrane pellet sections; assay type: binding; conditions: Table 3; mean ± SEM when N ≧ 3; read-out: sst5 binding affinity (IC50)
T1 construct: expressed in transfected cells; host or cells: CHO-K1 or CCL39 cells
Method: (§1) Generally, recombinant cells expressing the receptor are washed and homogenized to prepare a crude protein homogenate in a suitable buffer. In a typical assay, an amount of protein from the cell homogenate is placed into a small volume of an appropriate assay buffer at an appropriate pH. Candidate substances, such as potential SRIF agonists and antagonists, are added to the admixture in convenient concentrations, and the interaction between the candidate substance and the receptor polypeptide is monitored.
(§2) In vitro Bioassay: The effects of the various somatostatin analogs were tested in vitro for their ability to bind to isolated cloned receptors expressed on CHO-K1 cells and CCL39 cells. The molecular cloning of the genes encoding multiple somatostatin receptor subtypes permitted the individual expression of these receptors in mammalian cells and the characterization of their respective pharmacological profiles.
(§3) CHO-K1 cells were grown in Ham's F-12 medium, and CCL39 cells were grown in Dulbecco's modified Eagle's medium/Ham's F-12(1:1) mix, supplemented with 10% fetal bovine serum, 100 U/ml penicillin and 100 μg/ml streptomycin, in humidified air containing 5% CO2 at 37° C. Cells were washed twice with and scraped into ice-cold 0.05 M Tris-HCl (pH 7.4), collected by centrifugation, and homogenized using a rotor/stator/system in the same buffer. After centrifugation at 120 g for 5 min at 4° C., the supernatant was collected and centrifuged again at 48,000 g for 30 min at 4° C. The resulting pellet was resuspended in ice-cold Tris buffer, transferred into a microfuge tube, and centrifuged at 20,000 g for 15 min at 4° C. After withdrawal of the supernatant, the membrane pellet was stored at −80° C.
(§4) Receptor autoradiography was performed on 20 μm thick cryostat sections of the membrane pellets, mounted on microscope slides, and then stored at −20° C. […] Increasing concentrations of the unlabeled peptide were used ranging from 0.1-1000 nM. […] IC50 values were calculated after quantification of the data using a computer-assisted image processing system as known in this art.
(§5) The numbers in parentheses indicate the number of times the particular binding test was carried out.
(§6) Receptor autoradiography. Cell membrane pellets were prepared as previously described, and stored at −80° C. Receptor autoradiography was performed on 20-μm thick cryostat (Microm HM 500, Walldorf, Germany) sections of the membrane pellets, mounted on microscope slides, and then stored at −20° C. […] After a brief dip in distilled water to remove excess salts, the sections were dried quickly and exposed for 1 week to Kodak BioMax MR film. IC50 values were calculated after quantification of the data using a computer-assisted image processing system as described previously. […] (Reubi, J. C. “In vitro identification of vasoactive intestinal peptide receptors in human tumors: Implications for tumor imaging.” J. Nucl. Med. 1995, 36, 1846-1853).
(§7) To investigate their ssts binding properties, the peptides were tested for their ability to bind to cryostat sections from membrane pellets of cells expressing the five human ssts (Table 3).

[3] = target: T2, hSSTR3 (Homo sapiens, UniProt P32745); assay: as above; assay type: binding; conditions: Table 3; mean ± SEM when N ≧ 3; read-out: sst3 binding affinity (IC50)
T2 construct: expressed in transfected cells; host or cells: CHO-K1 or CCL39 cells
Method: as §1, §2, §3, §4, §5, §6, §7

[4] = target: T3, hSSTR2 (Homo sapiens, UniProt P30874); assay: as above; assay type: binding; conditions: Table 3; mean ± SEM when N ≧ 3; read-out: sst2 binding affinity (IC50)
T3 construct: expressed in transfected cells; host or cells: CHO-K1 or CCL39 cells
Method: as §1, §2, §3, §4, §5, §6, §7

[5] = target: T4, hSSTR1 (Homo sapiens, UniProt P30872); assay: as above; assay type: binding; conditions: Table 3; mean ± SEM when N ≧ 3; read-out: sst1 binding affinity (IC50)
T4 construct: expressed in transfected cells; host or cells: CHO-K1 or CCL39 cells
Method: as §1, §2, §3, §4, §5, §6, §7

[6] = target: T5, hSSTR4 (Homo sapiens, UniProt P31391); assay: as above; assay type: binding; conditions: Table 3; mean ± SEM when N ≧ 3; read-out: sst4 binding affinity (IC50)
T5 construct: expressed in transfected cells; host or cells: CHO-K1 or CCL39 cells
Method: as §1, §2, §3, §4, §5, §6, §7

[7] = target: T6, human sst2A receptor (Homo sapiens, UniProt P30874); assay: Immunofluorescence-based sst2 internalization assay in HEK-sst2 cells; assay type: cell-based; conditions: n ≧ 2
T6 construct: expressed in transfected cells; host or cells: HEK293 (HEK-sst2)
Method: Immunofluorescence-based sst2 Internalization Assay. Immunofluorescence microscopy-based internalization assay for sst2 was performed with HEK-sst2 using the sst2-specific antibody R2-88 as described elsewhere herein. HEK-sst2 cells were treated either with vehicle alone, the sst2 agonist [Tyr^3]-octreotide at a concentration of 100 nM, [Tyr^3]-octreotide at a concentration of 100 nM in the presence of an excess of the SRIF analogues to be tested (100 times the concentration of [Tyr^3]-octreotide), or with the SRIF analogues to be tested alone at a concentration of 10 μM, and then processed for immunofluorescence microscopy as described previously.

T2 sequence (P32745 whole entry): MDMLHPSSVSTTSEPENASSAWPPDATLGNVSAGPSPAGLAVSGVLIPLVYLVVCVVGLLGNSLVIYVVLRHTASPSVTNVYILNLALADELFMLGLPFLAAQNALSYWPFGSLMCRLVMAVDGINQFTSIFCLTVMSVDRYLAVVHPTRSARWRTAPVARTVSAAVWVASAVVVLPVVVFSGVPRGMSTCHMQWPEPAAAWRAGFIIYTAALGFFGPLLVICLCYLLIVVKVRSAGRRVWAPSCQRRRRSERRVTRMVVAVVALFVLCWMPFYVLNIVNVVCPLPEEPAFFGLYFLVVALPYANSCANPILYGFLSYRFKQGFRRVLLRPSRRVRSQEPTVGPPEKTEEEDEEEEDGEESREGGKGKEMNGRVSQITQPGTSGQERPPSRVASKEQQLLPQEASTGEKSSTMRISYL
T6 sequence (P30874 whole entry): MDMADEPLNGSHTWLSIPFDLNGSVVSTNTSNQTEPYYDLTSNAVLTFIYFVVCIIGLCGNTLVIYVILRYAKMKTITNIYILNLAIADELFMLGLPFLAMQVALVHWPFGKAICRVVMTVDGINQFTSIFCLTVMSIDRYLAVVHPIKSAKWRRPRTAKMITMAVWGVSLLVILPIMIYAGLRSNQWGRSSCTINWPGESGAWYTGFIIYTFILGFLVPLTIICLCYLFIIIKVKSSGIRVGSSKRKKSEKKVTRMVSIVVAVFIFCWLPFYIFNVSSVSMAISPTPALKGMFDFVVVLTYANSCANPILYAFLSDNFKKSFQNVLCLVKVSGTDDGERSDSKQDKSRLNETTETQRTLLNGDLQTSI
Sequence of sst2 (P30874 whole entry): as above
T5 sequence (P31391 whole entry): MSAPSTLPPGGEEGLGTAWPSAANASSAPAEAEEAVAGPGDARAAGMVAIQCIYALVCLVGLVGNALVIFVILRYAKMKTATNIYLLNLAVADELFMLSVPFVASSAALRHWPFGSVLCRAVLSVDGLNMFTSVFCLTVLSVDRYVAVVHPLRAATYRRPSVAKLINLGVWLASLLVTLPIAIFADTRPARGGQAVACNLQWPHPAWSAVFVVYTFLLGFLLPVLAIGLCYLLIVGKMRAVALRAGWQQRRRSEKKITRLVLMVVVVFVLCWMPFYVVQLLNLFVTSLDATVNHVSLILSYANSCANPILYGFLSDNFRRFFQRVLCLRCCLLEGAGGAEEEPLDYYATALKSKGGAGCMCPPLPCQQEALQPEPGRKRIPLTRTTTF
T1 sequence (P35346 whole entry): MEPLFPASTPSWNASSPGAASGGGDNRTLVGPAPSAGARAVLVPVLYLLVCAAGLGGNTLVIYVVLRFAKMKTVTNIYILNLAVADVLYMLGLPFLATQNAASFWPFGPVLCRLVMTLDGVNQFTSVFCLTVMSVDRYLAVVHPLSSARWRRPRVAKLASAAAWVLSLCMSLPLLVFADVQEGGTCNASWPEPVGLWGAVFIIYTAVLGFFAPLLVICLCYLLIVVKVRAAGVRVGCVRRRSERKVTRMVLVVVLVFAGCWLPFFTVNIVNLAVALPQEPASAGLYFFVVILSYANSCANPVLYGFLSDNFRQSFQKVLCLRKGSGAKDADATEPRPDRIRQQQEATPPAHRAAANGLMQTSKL
T4 sequence (P30872 whole entry): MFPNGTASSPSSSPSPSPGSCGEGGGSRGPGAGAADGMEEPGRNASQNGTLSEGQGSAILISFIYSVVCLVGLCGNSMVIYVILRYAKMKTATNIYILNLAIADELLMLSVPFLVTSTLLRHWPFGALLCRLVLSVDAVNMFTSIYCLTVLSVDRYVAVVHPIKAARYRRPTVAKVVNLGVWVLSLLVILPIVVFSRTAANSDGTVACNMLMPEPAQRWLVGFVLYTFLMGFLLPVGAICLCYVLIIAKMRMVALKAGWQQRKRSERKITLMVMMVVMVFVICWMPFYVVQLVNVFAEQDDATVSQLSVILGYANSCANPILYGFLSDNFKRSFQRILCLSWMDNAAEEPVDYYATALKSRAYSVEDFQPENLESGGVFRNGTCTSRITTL
T3 sequence (P30874 whole entry): as the sequence (P30874 whole entry) above

SMILES | Calcium release tested in vitro in HEK-sst2 cells (function) [1] | IC50 [2] [nM] | IC50 [3] [nM] | IC50 [4] [nM] | IC50 [5] [nM] | IC50 [6] [nM] | sst2-internalization tested in vitro in HEK-sst2 cells (function) [7]
C[C@@H](O)[C@@H]1NC(=O)[C@H](CCCCN)NC(=O)[C@@H](Cc2c[nH]c3ccccc23)NC(=O)[C@H](Cc2ccc(NC(N)=O)cc2)NC(=O)[C@H](NC(=O)[C@@H](N)Cc2ccc(Cl)cc2)CSSC[C@@H](C(N)=O)NC1=O [compound 17, H2N-Cpa-c[DCys-Aph(Cbm)-DTrp-Lys-Thr-Cys]-NH2] (H-[Phe(4-Cl)][dC][Phe(4-NHCONH2)][dW]KTC-NH2; disulfide 2-7) | Antagonist | 461 ± 106 | 138 ± 52 | 5.9 ± 1.8 | > 1000 | > 1000 | Antagonist
C[C@@H](O)[C@@H]1NC(=O)[C@H](CCCCN)NC(=O)[C@@H](Cc2ccc(NC(N)=O)cc2)NC(=O)C(Cc2ccc(NC(=O)C3CC(=O)NC(=O)N3)cc2)NC(=O)[C@H](NC(=O)[C@@H](N)Cc2ccc(Cl)cc2)CSSC[C@@H](C(=O)N[C@@H](Cc2ccc3ccccc3c2)C(N)=O)NC1=O (stereo partly drawn) [compound 29, H2N-Cpa-c[DCys-Aph(Hor)-DAph(Cbm)-Lys-Thr-Cys]-2Nal-NH2] (H-[Phe(4-Cl)][dC][ξPhe(4-NH2)](ξDihydroorotoyl)[dPhe(4-NHCONH2)]KTC[2Nal]-NH2; disulfide 2-7) | Antagonist | – | – | – | – | – | Antagonist
C[C@@H](O)[C@@H]1NC(=O)[C@H](CCCCN)NC(=O)[C@@H](Cc2ccc(NC(N)=O)cc2)NC(=O)[C@H](Cc2ccc(O)cc2)NC(=O)[C@H](NC(=O)[C@@H](N)Cc2ccc([N+](=O)[O-])cc2)CSSC[C@@H](C(=O)N[C@@H](Cc2ccc3ccccc3c2)C(N)=O)NC1=O [compound 4, H2N-pNO2Phe-c[DCys-Tyr-DAph(Cbm)-Lys-Thr-Cys]-2Nal-NH2] (H-[Phe(4-NO2)][dC]Y[dPhe(4-NHCONH2)]KTC[2Nal]-NH2; disulfide 2-7) | – | > 1000 | 384 | 2.6 | > 1000 | > 1000 | Antagonist
C[C@@H](O)[C@@H]1NC(=O)[C@H](CCCCN)NC(=O)[C@@H](Cc2c[nH]c3ccccc23)NC(=O)[C@H](Cc2ccc(NC(N)=O)cc2)NC(=O)[C@H](NC(=O)[C@@H](N)Cc2ccc(Cl)cc2)CSSC[C@@H](C(=O)N[C@@H](Cc2ccc3ccccc3c2)C(N)=O)NC1=O [compound 12, H2N-Cpa-c[DCys-Aph(Cbm)-DTrp-Lys-Thr-Cys]-2Nal-NH2] | Antagonist | – | – | – | – | – | Antagonist
CC(=O)N[C@@H](Cc1ccc([N+](=O)[O-])cc1)C(=O)N[C@@H]1CSSC[C@@H](C(=O)N[C@H](Cc2ccc(O)cc2)C(N)=O)NC(=O)[C@H]([C@@H](C)O)NC(=O)[C@H](CCCCN)NC(=O)[C@@H](Cc2c[nH]c3ccccc23)NC(=O)[C@H](Cc2ccc(O)cc2)NC1=O [compound 1, Ac-pNO2Phe-c[DCys-Tyr-DTrp-Lys-Thr-Cys]-DTyr-NH2, reference compound] | – | – | > 1000 | – | – | – | Antagonist
